The record followed here is patent US20260146044A1, “AROMATIC COMPOUND, PHARMACEUTICAL COMPOSITION CONTAINING SAME, AND USE THEREOF” (Increland, priority 2023, published 2026).

A value given as a limit tells only on which side of the number the result lay.

Assay [1] has as its system secretion levels of IL-6 in PBMC cells. The experiment in a line: Inhibition of R848-induced IL-6 secretion in PBMC (IL-6 ELISA). The class given is cell-based. The settings on record: human PBMC, 20 h compound pre-incubation, 24 h stimulation. Summed up: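 PBMC pre-treated with compounds (top 1 μM, 4-fold dilutions) in RPMI 1640/10% FBS for 20 h at 37 °C, then stimulated with R848 ([…] final) for another 24 h. Supernatant IL-6 by ELISA (OD450, standard curve); IC50 from dose-effect curve fit.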
Background: In an ELISA, binding on a coated surface is turned into a signal by an enzyme label.

For assay [2] the test system is unchanged. The experiment in a line: Inhibition of LPS+IL-1β-induced IL-6 secretion in PBMC (IL-6 ELISA). The class given is cell-based. The settings on record: human PBMC, 24 h compound pre-incubation, 20 h stimulation.
Assay [3] deals with IMQ-induced psoriasis model. Kind of assay: IMQ-induced psoriasis model, skin thickening and ear thickening. The class given is in vivo, BALB/c mice. The settings on record: BID, gavage; for IMQ-induced psoriatic ear thickening, P compared with the Model group: FIG. 2. How it is done: Male BALB/c mice aged 6-8 weeks were randomly grouped into 15 groups or 6 groups after 1 week of adaptive feeding: control group, imiquimod model group (i.e., Model group), clobetasol propionate group (i.e., CLO group), the compounds of the present invention: TM-57 ICL-004192 (3 mg/kg, 10 mg/kg, 30 mg/kg), TM-109ICL-004240 (3 mg/kg, 10 mg/kg, 30 mg/kg, 60 mg/kg), TM-101ICL-004250 (3 mg/kg, 10 mg/kg, 30 mg/kg, 60 mg/kg), with 5 mice per group, and the Control group, the imiquimod model group (i.e., the Model group), and the clobetasol propionate group (i.e., the CLO group). On day 0, each of the mice was unhaired on the back using a hair removal cream, with a hair removal area of 2.5 cm×1.5 cm. On the first day, IMQ cream was used for modeling, and a corresponding drug was administered by gavage for treatment. The compounds of the present invention were administered by gavage at corresponding doses twice daily in the morning and evening with an interval of 8 h between two administrations. 2 h after the first gavage on a same day, the IMQ cream was applied to the to-be-unhaired site on the back and the left ear of each of the mice, with doses of the IMQ cream administered to the to-be-unhaired site on the back and the left ear being 62.5 mg and 7.5 mg, respectively. 5 h after the IMQ cream was applied to the to-be-unhaired area on the back and the left ear of each of the mice in the CLO group, clobetasol propionate cream was applied once daily. The blank group and the IMQ group were administrated with a vehicle twice daily in the morning and evening with an interval of 8 h between two administrations. […]
Referring to the Psoriasis Area and Severity Index (PASI) scoring criteria, the psoriasis, erythema, and thickness of skin lesions on the back were scored from 0 to 4 every morning from day 1 of modeling, with the scoring criteria as shown in Table 1. […] The ear thickness of the left ear of the mouse was measured using a digital vernier caliper three times every morning from day 1, to obtain a mean value.

As for `Cc1nn(C2CCC(=O)NC2=O)c2cccc(N3CC4CN(C[C@H]5CC[C@H](n6cc7cc(NC(=O)c8cnn9cccnc89)c(N8CCOCC8)cc7n6)CC5)CC4C3)c12` (stereo partly drawn) [TM-57], the IC50 (usually the concentration needed to halve the response being measured) is 3.43 nM in assay [1] and 8.67 nM in assay [2]. In addition, in assay [3] (30 mg/kg, FIG. 1), the “IMQ-induced psoriatic skin thickening, P compared with the Model group” value is less than 0.01. Besides, the “IMQ-induced psoriatic ear thickening, P compared with the Model group” value in assay [3] (30 mg/kg) was less than 0.0001.

`Cc1nn(C2CCC(=O)NC2=O)c2cncc(N3CCN(C[C@H]4CC[C@H](n5cc6cc(NC(=O)c7cnn8cccnc78)c(N7CCO[C@H](C)C7)cc6n5)CC4)CC3)c12` (stereo partly drawn) [TM-109] showed an IC50 in assay [2] of 39.2 nM. The “IMQ-induced psoriatic ear thickening, P compared with the Model group” value in assay [3] (60 mg/kg) is less than 0.01.
